Values of other authors in patent publication US7101912B2, “Carbidopa prodrugs and derivatives, and compositions and uses thereof” (XenoPort, Inc., priority 2002, dated 2006).

Experiments:
[1] = rats

Row | conversion of the prodrug to levodopa in rat plasma (following absorption from an intestinal loop) | levels of levodopa (rat plasma following absorption from an intestinal loop) | absorption following rectal administration [1] | SMILES
1 | slow | low | – | CC(C)(C)C(=O)Oc1ccc(C[C@H](N)C(=O)O)cc1O [NB-355]
2 | – | – | poor | C[C@@](Cc1ccc(O)c(O)c1)(NN)C(=O)O [carbidopa]
